Where two headings read alike, the source gives them in different places.
Legend:
hERG = biological target: T1, hERG (Homo sapiens, UniProt Q12809); assay: electrophysiology-based hERG assay using IonWorks HT (CHO cells); type: cell-based
T1 construct: expressed in transfected cells; host or cells: CHO cells
Description: hERG IC50 was determined in an electrophysiology-based hERG assay using IonWorks HT (CHO cells) as described earlier.

Pf = assay: Predicted human efficacy (parasite load reduction); parameters: species or system Plasmodium falciparum
Description: The predicted human exposure after a single dose of 260 mg is likely to sustain the maximum kill rate observed in the Pf/SCID model for 4–6 days to achieve >3-log reduction in parasitemia (Supplementary Note 6, Supplementary Figs 12 and 13, and Supplementary Table 12). A patient with clinical symptoms of uncomplicated malaria may have 1–2% parasitemia in blood, which is equivalent to 11–12 log parasites in total, assuming 13 log erythrocytes in human blood. At a dose of 260 mg, compound 12 is predicted to maintain a constant kill rate over two life cycles (96 h) of the parasite to yield a 3 to 4-log reduction in the total parasite load. Therefore, a single-dose treatment with~500 mg might result in >8-log reduction in the parasite load. In a combination-based malaria therapy that is clinically practiced, an additive or synergistic effect of the partner drug with compound 12 is predicted to cure patients following a single-dose treatment.
Prediction of human PK profile. The predicted human CL and Vss estimates could be used for predicting human PK with a one compartment distribution. However, rat and dog IVPK profiles indicated a two compartment distribution. Parameters for the two compartment distribution in human were predicted by Wajima transformation8 of rat and dog IVPK […]
CLd, Vt and Vc estimates, assuming similar Ka (0.3/h) and F (0.7) as observed in rats (supplementary Fig. 12 ).
Predicted human PK parameters are shown in supplementary Table 12. Human CL estimates predicted by the FCIM method and IVIVE (3.8 ml/min/kg) were identical. The […]
Human efficacy was predicted after treatment of 70 kg adult with a single 260 mg dose, assuming 2% parasitemia at the onset of treatment and assuming one compartment distribution of 12 in humans (supplementary Fig. 13). Similar efficacy was predicted if 12 was distributed in two compartments.

Dd2 bc-1 ELQ-300 = assay: [3H]-hypoxanthine incorporation assay, Dd2 bc-1 ELQ-300 resistant; type: cell-based, Plasmodium falciparum; settings: Plasmodium falciparum, DD2
Description: Supplementary Table 3: Compound 9 and 12 retain their activity against Pf strains harbouring mutations to novel antimalarial agents in clinical development. Compound 9 and 12 were tested for their antiplasmodial activity against a panel of Pf strains known to harbour mutations conferring resistance to novel agents under clinical development. Parasite growth inhibition is measured using the [3H]-hypoxanthine incorporation assay. IC50s are established for each strain (n ≥2) and compared to the IC50 of Dd2 (standard pan-resistant […]

[1] = Plasma protein binding, human; settings: for fraction unbound: human, plasma
Dd2-6R F4 G7 = assay: SYBR green growth assay, Dd2-6R F4 G7; settings: Plasmodium falciparum
Description: Assays were carried out in 384-well format with three technical replicates within an assay day and biological replicates carried out on three different assay days to assign a final EC50.
The drug was then washed off and the parasites were allowed to recover in normal growth media.

Ion channel [2] = assay: Secondary pharmacology panel, target #5
Description: (§1) An in vitro pharmacological profiling panel was specifically designed for the detection of potential high- risk clinical adverse drug reactions. […] For enzyme and kinase assays, the results were expressed as a percent inhibition of control-specific activity obtained in the presence of the test compound. The IC50 values (concentration causing a half-maximal inhibition of control-specific activity) and Hill coefficients (nH) were determined by nonlinear regression analysis of the inhibition/concentration–response curves using Hill equation curve fitting as described earlier[37].
(§2) For radioligand binding assays, the results are expressed as % inhibition of control-specific binding obtained in the presence of the test compounds. The IC50 values (concentration causing a half-maximal inhibition of control-specific binding) and Hill coefficients (nH) were determined by nonlinear regression analysis of the competition curves generated with mean replicate values using Hill equation curve fitting. The inhibition constants (Ki) were subsequently calculated by applying the Cheng Prusoff equation[38].
(§3) For assessment of activity against these targets, compounds were tested in an 8-point
(§4) concentration response covering half-log units up to a top test concentration of 100 µM, and
(§5) an IC50 or Ki determined using either radio ligand binding assays or enzyme activity assays.

GPCR [3] = assay: Secondary pharmacology panel, target #6
Description: as §1, §2, §3, §4, §5

Transporter = assay: Secondary pharmacology panel, target #14
Description: as §1, §2, §3, §4, §5

Enzyme [4] = assay: Secondary pharmacology panel, target #15
Description: (§6) For enzyme and kinase assays, the results were expressed as a percent inhibition of control-specific activity obtained in the presence of the test compound. The IC50 values (concentration causing a half-maximal inhibition of control-specific activity) and Hill coefficients (nH) were determined by nonlinear regression analysis of the inhibition/concentration–response curves using Hill equation curve fitting as described earlier[37].
as §3, §4, §5

Ion channel [5] = assay: Secondary pharmacology panel, target #17
Description: as §1, §2, §3, §4, §5

Enzyme [6] = assay: Secondary pharmacology panel, target #19
Description: as §6, §3, §4, §5

Ion channel [7] = assay: Secondary pharmacology panel, target #21
Description: as §1, §2, §3, §4, §5

Enzyme [8] = assay: Secondary pharmacology panel, target #24
Description: as §6, §3, §4, §5

GPCR [9] = assay: Secondary pharmacology panel, target #26
Description: as §1, §2, §3, §4, §5

[10] = Target #18, hERG, read-out: Binding Ki / Enzyme IC50

T1 sequence (Q12809 whole entry): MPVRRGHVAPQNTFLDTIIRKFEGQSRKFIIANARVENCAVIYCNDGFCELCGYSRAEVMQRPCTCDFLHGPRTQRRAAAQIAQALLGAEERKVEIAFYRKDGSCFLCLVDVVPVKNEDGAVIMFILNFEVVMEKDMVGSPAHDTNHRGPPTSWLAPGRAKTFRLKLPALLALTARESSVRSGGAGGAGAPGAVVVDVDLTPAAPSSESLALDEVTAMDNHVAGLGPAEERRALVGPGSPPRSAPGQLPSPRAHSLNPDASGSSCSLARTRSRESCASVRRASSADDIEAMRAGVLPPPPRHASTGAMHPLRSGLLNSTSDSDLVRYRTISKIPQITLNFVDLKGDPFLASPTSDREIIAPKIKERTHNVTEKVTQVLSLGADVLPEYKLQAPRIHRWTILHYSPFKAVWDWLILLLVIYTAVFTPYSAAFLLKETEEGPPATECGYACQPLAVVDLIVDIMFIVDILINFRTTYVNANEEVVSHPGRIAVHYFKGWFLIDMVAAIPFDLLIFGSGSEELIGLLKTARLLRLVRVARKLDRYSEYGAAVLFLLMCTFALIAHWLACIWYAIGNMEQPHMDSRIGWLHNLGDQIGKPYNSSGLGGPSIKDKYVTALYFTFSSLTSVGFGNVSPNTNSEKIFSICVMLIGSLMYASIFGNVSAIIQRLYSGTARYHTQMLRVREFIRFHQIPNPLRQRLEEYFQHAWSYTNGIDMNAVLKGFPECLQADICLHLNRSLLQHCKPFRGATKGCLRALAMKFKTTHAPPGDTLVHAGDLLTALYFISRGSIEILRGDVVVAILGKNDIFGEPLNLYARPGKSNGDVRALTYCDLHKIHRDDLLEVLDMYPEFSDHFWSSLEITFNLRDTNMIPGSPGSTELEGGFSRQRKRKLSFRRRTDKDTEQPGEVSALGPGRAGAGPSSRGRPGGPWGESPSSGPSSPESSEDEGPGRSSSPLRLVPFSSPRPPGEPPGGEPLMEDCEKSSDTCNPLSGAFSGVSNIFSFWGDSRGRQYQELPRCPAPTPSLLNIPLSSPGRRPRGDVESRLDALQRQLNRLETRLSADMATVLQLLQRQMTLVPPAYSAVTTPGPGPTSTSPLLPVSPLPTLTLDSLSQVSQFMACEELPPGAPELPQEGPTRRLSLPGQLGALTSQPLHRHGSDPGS

Structure (SMILES)	IC50 (hERG; [10]) [µM]	IC50 (hERG; hERG IC50) [µM]	fraction unbound [1]	Binding Ki / Enzyme IC50 (Ion channel [2]) [µM]	Binding Ki / Enzyme IC50 (GPCR [3]) [µM]	Binding Ki / Enzyme IC50 (Transporter) [µM]	Binding Ki / Enzyme IC50 (Enzyme [4]) [µM]	Binding Ki / Enzyme IC50 (Ion channel [5]) [µM]	Binding Ki / Enzyme IC50 (Enzyme [6]) [µM]	Binding Ki / Enzyme IC50 (Ion channel [7]) [µM]	Binding Ki / Enzyme IC50 (Enzyme [8]) [µM]	Binding Ki / Enzyme IC50 (GPCR [9]) [µM]	other results
Cc1nc(Nc2ncc(N3CCN(C)[C@H](C)C3)c(Nc3cc(C)n(C)n3)n2)cc(C2CC2)c1F [compound 12, (R)-N2-(4-cyclopropyl-5-fluoro-6-methylpyridin-2-yl)-N4-(1,5-dimethyl-1H-pyrazol-3-yl)-5-(3,4-dimethylpiperazin-1-yl)pyrimidine-2,4-diamine]	35.9	33	0.025	8.58	7.82	10.1	11.6	> 100	14.5	> 100	> 100	> 100	selectivity ratio (hERG; human, CHO cells that express hERG, relative to Pf potency, read-out: selectivity against hERG): > 1000; predicted reduction in the total parasite load (Pf; 260 mg, two life cycles (96 h)): 3 to 4 log; predicted reduction in parasitemia (Pf; single dose of 260 mg, 4–6 days): > 3 log; predicted reduction in the parasite load (Pf; single dose ~500 mg): > 8 log; IC50 (Dd2 bc-1 ELQ-300): 0.0082 µM; Plasma protein binding (% free) ([1]; Human): 2.5 % free; Protein binding (human free) ([1]; Human): 2.5%; reduction in free fraction ([1]; compound 12 versus compound 2): 10 fold; IC50 (Dd2-6R F4 G7): 0.0907 µM
Cc1cc(Nc2ncc(N3CCN(C)CC3)c(N3CCCC3)n2)ccn1 [compound 2]	85.02	85	0.402	3.64	2.695	31.45	13	59	> 100	> 100	> 100	> 100	–

Reference: paper PMC4389225, “Triaminopyrimidine is a fast-killing and long-acting antimalarial clinical candidate” (Nature Communications, 2015)
